Source: patent US20260284190A1, “METHODS FOR THE TREATMENT OF T-CELL ACUTE LYMPHOBLASTIC LEUKEMIA” (Institut Curie, priority 2023, published 2026)

Assays:
T-ALL PDX cells = assay: Transcriptome profiling (Affymetrix microarray) of T-ALL PDX in response to anti-CD3; format: in vivo, NSG mice; settings: 40 μg, 6 hours; for expression of genes of interest (TNFR super family pathway, PD1): FIG. 1B; for TCR-induced signature: number of deregulated genes: 2X, p-value<0.05, common to both monoclonal antibodies, in vivo
Text: Leukemic cells were then collected, flow-cytometry sorted, RNA isolated and analyzed using human Affymetrix arrays. […] FC: Fold Change. C RNA expression analysis (digitalized numeration of transcripts-mRNA) of genes of interest in M106 xenograft overtime after OKT3 treatment using Nanostring arrays: TNFα, LTα, TNFRSF9 (4-1BB), TNFRSF1B (TNFR2), TNFRSF4 (OX40) and PDCD1 (PD1). D Flow cytometry analysis of TNFRSF1B (TNFR2), TNFRSF1A (TNFR1), TNFRSF9 (4-1BB), TNFRSF4 (OX40) and PDCD1 (PD 1) cell surface expression in leukemic cells isolated from mice treated with 40μg of control IgG or OKT3 for 24h.
Total RNA was isolated from flow-cytometry-sorted leukemic cells (FSChi, hCD7+, hCD 45+) (6 hours following treatment with either 40 μg anti-CD 3 mAb or control IgG 2a antibody), using the Rneasy kit (QIAGEN). cRNA synthesis and hybridization of GeneChip Human Gene 2.0ST Array (Affymetrix) were according to the manufacturer's instructions, as described (http: //www-microarrays. u-strasbg. fr). A paired Student's t-test was performed to compare gene intensities in the different biological replicates. […] Hierarchical clustering analysis and pathway analyses on regulated genes (KEGG) were performed by Genosplice company.

[1] = system: caspase 8 activity in T-ALL cells; assay: Caspase 8 activity by flow cytometry in primary leukemic cells from treated leukemic mice; parameters: species or system NSG mice; settings: in vivo, 6 h; FIG. 2
Description: FIG. 2: Caspase 8 activity as measured by flow cytometry in primary leukemic cells collected from leukemic mice treated by control IgG (n=3) or anti-CD3 (OKT3) (n=3) mAbs for 6 h.
Cell suspensions prepared from mouse lymphoid organs, bone marrow, or blood were stained with fluorochrome-labeled antibodies and analyzed on a FACSCanto cytometer (BD Biosciences), as recommended by manufacturer. Data are analyzed using Diva, CellQuest (BD Biosciences) and FlowJo (TreeStar) softwares. Antibodies used are: CD7-FITC (4H9), CD45-APC (2D4) (eBioscience), PD1-Alexa Fluor 647 (EH12.2H7) (Biolegend).

[2] = in vivo; cited from earlier work
[3] = system: TCRαβ+ and TCRγδ+ T-ALL patients-derived xenografts; settings: cited from earlier work

In the case of “OKT3: anti-CD3ε monoclonal antibody (IgG2a)”, the “expression of genes of interest (TNFR super family pathway, PD1)” value (T-ALL PDX cells) is reported as “significantly upregulated”, the “TCR-induced signature: number of deregulated genes” value (T-ALL PDX cells) is reported as about 600 and the “caspase 8 activity in T-ALL cells” value [1] is reported as “fast induction”.

In the case of foralumab: a fully human anti-CD3 mAb, the “adverse effects in humans” value [2] is listed as “only minor adverse effects”, the “final outcome of monotherapy” value ([3]; mice carrying TCR+ T-ALL PDX) is listed as “leukemia relapse and resistance to TCR-directed therapy” and the “anti-leukemic effects over time” value ([3]; monotherapy of T-ALL PDX) is listed as “profound anti-leukemic effects”. The host survival ([3]; monotherapy of T-ALL PDX) was “improved host survival”, the leukemic cells apoptosis ([3]; monotherapy of T-ALL PDX) was “within hours” and the remission ([3]; monotherapy of T-ALL PDX) was “durable remission”.

For “teplizumab: a humanized, mutated version of OKT3 which is FDA-approved in prevention of type I diabetes”, the “adverse effects in humans” value [2] is listed as “only minor adverse effects”, the “expression of genes of interest (TNFR super family pathway, PD1)” value (T-ALL PDX cells) is listed as “significantly upregulated” and the “TCR-induced signature: number of deregulated genes” value (T-ALL PDX cells) is listed as about 600.
